Experimental data taken from patent US12077534B2, “Aza-heterobicyclic inhibitors of MAT2A and methods of use for treating cancer” (Les Laboratoires Servier SAS, priority 2018, dated 2024).

How the values were obtained:
HCT116 MTAP+/+ = test: Inhibition of cellular proliferation (Cell Titer Glo), HCT116 MTAP+/+; assay type: cell-based; conditions: Homo sapiens, HCT-116, 96 h, 4 days, read-out: 4 Day Relative Growth Inhibition (MTAP +/+)
Method in brief: (§1)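 Isogenic HCT116 MTAP+/+ and MTAP−/− cells treated 24 h after plating with 10-point 3-fold dilutions, then grown 4 days at 37 °C/5% CO2. ATP content read by Cell Titer Glo luminescence, blank-subtracted and normalized to 0.2% DMSO control, plotted as percent proliferation change versus log molar concentration.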

[1] = system: MAT2A activity (SAM) in HCT116 cells with deleted MTAP gene; test: Cellular assay of target engagement (SAM) by LC-MS/MS; assay type: cell-based; conditions: Homo sapiens, HCT-116; HCT116 MTAP −/−, 72 hrs; read-out: Cell 72 h SAM Inhibition (MTAP −/−)
Method in brief: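 HCT116 MTAP-deleted cells treated with 10-point 3-fold DMSO serial dilutions of compound for 72 hrs at 37° C. Cells lysed in cold 80% methanol/acetic acid extraction buffer with d3-SAM internal standard; SAM quantified by LC-MS/MS (MRM m/z 399.2→250.1).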

HCT116 MTAP−/− = test: Inhibition of cellular proliferation (Cell Titer Glo), HCT116 MTAP-/-; assay type: cell-based; conditions: Homo sapiens, HCT-116, 96 h, 4 days, read-out: 4 Day Relative Growth Inhibition (MTAP −/−)
Method in brief: as §1

MAT2A homodimer = molecular target: T1, MAT2A homodimer (Homo sapiens, UniProt P31153); test: MAT2A biochemical assay (phosphate release, PiColorLock Gold); conditions: recombinant MAT2A homodimer, 60 min pre-incubation, 25° C.; read-out: Enzyme Inhibition
T1 construct: inferred from Ni sepharose purification and imidazole elution; made in house; host or cells: SF9 insect cells, recombinant baculovirus (Bac to Bac, pFASTBAC1)
Method in brief: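 Baculovirus/Sf9-expressed, Ni-purified MAT2A homodimer (4 µg/mL in pH 8.0 Tris/KCl/MgCl2 buffer) preincubated 60 min at 25 °C with compound (2% DMSO final). Substrate mix of 500 µM ATP and 400 µM L-methionine added; 60 min at 25 °C; released phosphate quantified colorimetrically against a phosphate standard curve.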

T1 sequence (P31153 whole entry): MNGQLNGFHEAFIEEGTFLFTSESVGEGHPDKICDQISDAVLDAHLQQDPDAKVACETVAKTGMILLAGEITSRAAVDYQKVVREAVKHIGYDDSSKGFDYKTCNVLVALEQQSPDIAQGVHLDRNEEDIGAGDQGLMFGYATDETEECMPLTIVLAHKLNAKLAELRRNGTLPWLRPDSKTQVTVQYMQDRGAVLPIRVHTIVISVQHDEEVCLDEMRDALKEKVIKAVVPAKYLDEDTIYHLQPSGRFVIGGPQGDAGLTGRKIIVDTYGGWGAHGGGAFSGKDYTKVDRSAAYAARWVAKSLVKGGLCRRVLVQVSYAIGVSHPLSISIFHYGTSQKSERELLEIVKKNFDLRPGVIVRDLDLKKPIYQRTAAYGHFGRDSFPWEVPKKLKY

| IC50 (HCT116 MTAP+/+) | IC50 [1] | IC50 (HCT116 MTAP−/−) | IC50 (MAT2A homodimer) | Compound |
| --- | --- | --- | --- | --- |
| ≥ 1 µM | < 0.1 µM | < 0.1 µM | < 0.1 µM | [2H]C([2H])([2H])n1cc2cc(-n3nc4ccc(NC([2H])([2H])C([2H])([2H])[2H])nc4c(-c4ccc(C(F)F)nc4)c3=O)ccc2n1 [Example 321, 4-(6-(difluoromethyl)pyridin-3-yl)-6-((ethyl-d5)amino)-2-(2-(methyl-d3)-2H-indazol-5-yl)pyrido[3,2-c]pyridazin-3(2H)-one] |
| < 0.1 µM | < 0.1 µM | < 0.1 µM | < 0.1 µM | [2H]C([2H])([2H])C([2H])([2H])Nc1ccc2nn(-c3ccc4nn(C)cc4c3)c(=O)c(-c3ccc(C)nc3)c2n1 [Example 323] |
| ≥ 1 µM | < 0.1 µM | < 0.1 µM | < 0.1 µM | CCNc1ccc2nn(-c3ccc4nc(C)n(C)c4c3)c(=O)c(-c3ccc(C(F)F)nc3)c2n1 [Example 327] |
| ≥ 1 µM | < 0.1 µM | < 0.1 µM | < 0.1 µM | Cn1cc2cc(-n3nc4ccc(OCC(F)F)nc4c(-c4ccc5[nH]cc(C#N)c5c4)c3=O)ccc2n1 [Example 331, 5-(6-(2,2-difluoroethoxy)-2-(2-methyl-2H-indazol-5-yl)-3-oxo-2,3-dihydropyrido[3,2-c]pyridazin-4-yl)-1H-indole-3-carbonitrile] |
